# According to patent US12703693B2, “Crystalline forms of N-{3-[(1S)-1-{[6-(3,4-dimethoxyphenyl)pyrazin-2-yl]amino}ethyl]phenyl}-5-methylpyridine-3-carboxamide and related products and methods” (GB002, INC., priority 2021, dated 2026):
# Key:
# [1] = Solubility in ethyl acetate and ethyl acetate+2% water (Crystal16 parallel crystallizer); assay type: physicochemical; settings: presence of water (2%)
# Protocol: The solubility of crystalline Forms A and B of Compound 1 in ethyl acetate was determined using a Crystal16® parallel crystallizer. Two heating rates were used, 1° C./min and 0.5° C./min. The suspensions were heated to 78° C. and cooled to 10° C. at 0.2° C./min and maintained for 2 h at 10° C. […] The suspensions were heated to 78° C. at 1° C./min, cooled to 10° C. at 0.2° C./min and maintained for 2 h at 10° C. FIG. 15 compares the resulting solubility curve with the pure ethyl acetate.
# [2] = Sample stress, 40° C. and 75% relative humidity, XRPD; assay type: physicochemical; settings: open vial, 6 days
# Protocol: Two samples, one containing pure crystalline Form A of Compound 1 and a second containing a mixture of crystalline Forms A and B of Compound 1 were placed in an open vial at 40° C. and 75% relative humidity for 6 days and then analyzed by XRPD. The results are presented in Table 11; no changes by XRPD were observed.
# [3] = Gravimetric Vapor Sorption (GVS); assay type: physicochemical; settings: 25° C.
# Protocol: Approximately 10-20 mg of crystalline Form A of Compound 1 was placed into a mesh vapor sorption balance pan and loaded into an IGASorp Moisture Sorption Analyzer balance by Hiden Analytical. The sample was subjected to a ramping profile from 40-90% relative humidity (RH) at 10% increments, maintaining the sample at each step until a stable weight had been achieved (98% step completion, minimum step length 30 minutes, maximum step length 60 minutes) at 25° C. After completion of the sorption cycle, the sample was dried using the same procedure to 0% RH, and finally taken back to the starting point of 40% RH. Two cycles were performed. The weight change during the sorption/desorption cycles were plotted, allowing for the hygroscopic nature of the sample to be determined.
# [4] = Physical stability, 1 week storage (HPLC purity, XRPD); assay type: physicochemical
# Protocol: Two vials each were then stored for 1 week under various conditions of temperature and relative humidity.
# XRPD analysis was performed to detect changes in crystallinity.
# [5] = Particle size distribution (PSD) of micronized / spray dried material; assay type: physicochemical; settings: Example 9 wet milling, 5% w/w in water, 45 cycles/P = 50 bar
# Text: Crystalline Compound 1 Form A was fed into a grinding chamber tangentially by vacuum created by the venturi system using pressurized nitrogen (venturi pressure, Pvent, above grind pressure, Pgrind). Compressed nitrogen was also used for the jet nozzles in the walls of the chamber. The feed flow rate was set and controlled automatically (by a gravimetric feeder) or manually. Once inside the milling chamber particles were accelerated by a series of perimeter jets, in a spiral movement. The compressed fluid issuing from the nozzles expands from Pgrind and imparts very high rotational speeds in the chamber. The micronizing effect occurs when the slower incoming particles and the faster particles in the spiral path collide. While centrifugal force retains the larger particles at the periphery of the milling chamber, the smaller particles exit with the exhaust gas from the center of the chamber. Five 20 g trials were performed in a 1.5″ jet mill, under varying feed rates (Ffeed,JM,) and pressures; the optimal conditions were used for a sixth larger scale 50 g trial.
# Aqueous suspensions of crystalline Compound 1 Form A in water (5% w/w or 10% w/w) were processed via microfluidization with a HPH18 (M-110EH-30 Microfluidics Pilot) wet milling apparatus equipped with an auxiliary processing module (200 μm) and an interaction chamber (Z-shape, 100 μm). The unit was initiated at a given pressure for the first five cycles to perform a pre-milling of the suspension, using only the auxiliary processing module (200 μm). The interaction chamber (100 μm) was then introduced and the suspension processed at a defined pressure. The temperature was controlled, using a reactor jacket, and recorded. To address clogging of the micronization chambers (observed after ~25 cycles), the pressure was increased from 25 to 60 bar.
# The material isolated from the first run 1A, was dived into three (1BI, 1BII and 1BIII); runs 2A and 3A were spray dried to produce samples 2B and 3B, respectively. […] Runs 2B and 3B were additionally characterized for specific surface area (SSA). See Table 27 (runs 1BI, 1BII and 1BIII) and Table 28 (runs 2B and 3B) for conditions and product characterization. […]
# Two 250 g batches of crystalline Compound 1 Form A were each suspended in water (5 L) and wet polished in a wet milling HPH18 (M-110EH-30 Microfluidics Pilot) apparatus, equipped with an auxiliary processing module (200 μm) and an interaction chamber (Z-shape, 100 μm). The unit was initiated at 50 bar for the first five cycles to perform a pre-milling of the suspension, using only the auxiliary processing module (200 μm). The interaction chamber (100 μm) was then introduced and the suspension processed at 50 bar (increased to 60 or 70 bar if the system clogged). The temperature was maintained at 18-28° C. using a reactor jacket. The Reactor agitation speed was 280 RPM (batch 1) and 390 RPM (batch 2). The first batch was micronized for 25 cycles and particle size distribution analyzed after 5, 15 and 20 cycles; the second batch was micronized for […] and particle size distribution analyzed after 15, 20, 25 and 35 cycles.
# Both batches were then spray dried (separately) using a Büchi spray dryer, using an open loop system. The unit was equipped with a two-fluid nozzle: cap and orifice diameters of 1.5 and 0.7 mm, respectively operated with nitrogen. The aspirator, blowing nitrogen, was set at 100% capacity (~40 kg/h). The suspension feed flow was set to 8 ml/min, high and the drying outlet temperature to 75±1° C. […] Total yield (both batches combined) was 267 g (53%).
# Two 250 g batches (250 g and 238 g; 488 g total) of crystalline Compound 1 Form A coated with ~2% L-leucine were each suspended in water (5 L) and wet polished in a wet milling HPH18 (M-110EH-30 Microfluidics Pilot) apparatus, under the same process as described in the previous example. The first batch was micronized for 25 cycles and the second for 30 cycles. […]
# [6] = physchem; settings: 22 °C, aqueous with cosolvent or surfactant or cyclodextrin, thermodynamic from solid
# Protocol: (§1) Phosphate Buffer contained NaH2PO4·H2O (0.345 g), sodium hydroxide aqueous solution (0.2M, 10.001 mL), sodium chloride (0.576 g) and water (qs ad 100.0 mL); • Ethanol/Water (30/70) contained Ethanol (30.0 g) and Water (70.0 g); • Ethanol/Water (40/60) contained Ethanol (40.0 g) and Water (60.0 g); • Ethanol/Water (50/50) contained Ethanol (50.0 g) and Water (50.0 g); and • Ethanol/Water (45/55) contained Ethanol (4.50 g) and Water (5.51 g).
# [7] = Solubility in 25 mM phosphate buffer pH 7.4; settings: phosphate buffer, pH 7.4
# Protocol: as §1
# [8] = Thermodynamic solubility in pH 3, 4.5, 6.8 buffers and deionized water; settings: for pH (24 h): ~24 h agitation at ambient temperature
compound,measurement,setting,value
"COc1ccc(-c2cncc(N[C@@H](C)c3cccc(NC(=O)c4cncc(C)c4)c3)n2)cc1OC [Form A, N-{3-[(1S)-1-{[6-(3,4-dimethoxyphenyl)pyrazin-2-yl]amino}ethyl]phenyl}-5-methylpyridine-3-carboxamide]",solubility in ethyl acetate+2% water compared to pure ethyl acetate,[1],significantly more soluble
same,XRPD observation after stress conditions,[2],No change - all Form A
same,hygroscopic nature (GVS),[3]; two sorption/desorption cycles,slightly hygroscopic
same,GVS mass increase,[3]; up to 90% relative humidity,~0.7%
same,Purity (HPLC),"[4]; 1 week, 25° C./60% relative humidity (open vial)",~99.1%
same,Purity (HPLC),"[4]; 1 week, 40° C./75% relative humidity (open vial)",~99.1%
same,Purity (HPLC),"[4]; 1 week, 80° C. (closed vial)",~99.0%
same,Purity (HPLC),"[4]; 1 week, Ambient light/temperature (closed vial)",~98.9%
same,Purity (HPLC),[4]; Before storage,~99.3%
same,crystalline form by XRPD after storage,"[4]; one week, ambient, 25° C., 40° C., 80° C., relative humidity ambient, 60%, 75%",maintained
same,Dv10,[5],0.1 μm
same,Dv50,[5],1.0 μm
same,Dv90,[5],3.5 μm
same,solubility,[6],2 to 350 mg/mL
same,solubility in phosphate buffer,[7],moderate solubility
same,pH (Initial),"[8]; Water, after addition",6.78
same,pH (24 h),[8]; Water,6.73
same,Compound 1 concentration in filtered mother liquors (HPLC),"[8]; all buffers (pH 3, 4.5, 6.8) and water, ambient temperature, ~24 h",< 0.05 mg/mL
same,pH (Initial),"[8]; pH 3 buffer, after buffer addition",2.96
same,pH (24 h),[8]; pH 3 buffer,2.94
same,pH (Initial),"[8]; pH 4.5 buffer, after buffer addition",4.55
same,pH (24 h),[8]; pH 4.5 buffer,4.55
same,pH (Initial),"[8]; pH 6.8 buffer, after buffer addition",6.83
same,pH (24 h),[8]; pH 6.8 buffer,6.79
